According to PubChem BioAssay AID2060354 (Molecular Pharmacology Branch, DTP, NCI, 2025):

Test system: 519858-162-T-J1-PDC spheroid growth inhibition
Assay: Anticancer human tumor 519858-162-T-J1-PDC patient-derived colon adenocarcinoma cell line growth inhibition [TAK]
Settings: spheroids with HUVEC and MSC; for IC50: curve of first compound; for viability, T/C: stronger effect = lower value
Excerpt: Combinatorial screen of targeted agents with TAK-243 and ipatasertib in multi-cell type tumor spheroids
A high-throughput screen of multi-cell type tumor spheroids was designed to identify active combinations of targeted small molecules and TAK-243 or ipatasertib. Complex spheroids include a stromal component modeled by human endothelial cells (HUVEC) and fibroblasts modeled by human mesenchymal stem cells (MSCs). The concentration ranges selected for each drug and investigational agent were based upon clinically achievable concentrations if the clinical Cmax of the agent was known.
Compounds. The drugs and investigational agents: TAK-243 (785004), ipatasertib (767898), everolimus (733504), selumetinib (741078), bortezomib (756655), trametinib (758246), ixazomib (758254), vemurafenib (761431), dabrafenib (764134), sapanisertib (764658), alpelisib (765974), and copanlisib (816437), were obtained from the National Cancer Institute (NCI) Developmental Therapeutics Program Chemical Repository. The FDA-approved anticancer drug set is available from the NCI Developmental Therapeutics Program. […] The stock solutions were prepared in dimethyl sulfoxide (DMSO, Sigma-Aldrich, St. Louis, MO, cat. D2650) at 800-fold the tested concentration and stored at -70 degrees C prior to their use. All drugs and investigational agents were tested over a range starting from a high concentration at or near the clinical Cmax and decreasing in half-log increments. If the clinical Cmax for an agent had not been determined, the highest concentration tested was 10 microM.
NCI60 Cell Culture. NCI60 cell lines were obtained from the NCI Developmental Therapeutics Program Tumor Repository. For each lot of cells, the Repository performed Applied Biosystems AmpFLSTR Identifiler testing with PCR amplification to confirm consistency with the published Identifier STR profile for each cell line. Cells were kept in continuous culture for no more than 20 passages. The optimal seeding densities for each of the cell lines at each time point assessed were determined prior to performing the concentration response studies. Briefly, the NCI60 human tumor lines were grown as monolayers in RPMI 1640 medium supplemented with 10% FBS and 2 mmol/L L-glutamine.
An additional 2 lines were from the NCI60 cell line panel including melanomas, MALME-3M and SK-MEL-2. Pooled donor human umbilical vein endothelial cells (HUVEC, Lonza, cat. CC-2519) and human mesenchymal stem cells (hMSC, Lonza, cat. PT-2501) were purchased from Lonza (Walkersville, MD).
PDMR cell lines were grown in complete medium (DC medium): Dulbecco's modified Eagle's medium (DMEM)/F12 supplemented with 5% fetal bovine serum (FBS), 2 mM L-glutamine, 100 U/mL penicillin and 100 µg/ml streptomycin, 0.4 µg/ml hydrocortisone, 10 ng/ml epidermal growth factor (EGF) recombinant human protein, 24 µg/mL adenine, and 0.1 mg/mL primocin. During culture from frozen stock vials, PDMR cells were cultured in the same medium containing 10 µM Y-27632 (see Table 3). The PDCs were cultured in complete DMEM/F12 media without 10 microM Y-27632 dihydrochloride for at least two passages prior to the screen. The pooled donor HUVEC and hMSC were cultured in endothelial cell growth medium 2 (PromoCell, Heidelberg, Germany, cat. C-22011) and mesenchymal stem cell growth medium 2 (PromoCell, cat. C-28009), respectively. For all experiments, HUVEC and hMSC were used at passages </=5.
For the pre-screen, cell seeding densities were determined from a titration spanning the range from 5,000 to 313 cells per well. The mct-spheroids including 60% malignant cells, 25% HUVEC and 15% MSC dispensed as a mixture into U-bottom Ultra-Low Attachment 384-well plates (Corning, NY)
High-throughput Drug Combination Screening.
Prior to their inoculation into 384-well plates, malignant cells, HUVEC, and hMSC were removed from T flasks using TrypLE express (Thermo Fisher Scientific, cat. 12605036) and harvested by centrifugation for 5 min at 233 x g. […]
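Further: spheroids exposed to drugs for 7 days.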

Structure (SMILES): CC(=O)Nc1cccc(-n2c(=O)n(C3CC3)c(=O)c3c(Nc4ccc(I)cc4F)n(C)c(=O)c(C)c32)c1 + CC(C)NCC(C(=O)N1CCN(c2ncnc3c2C(C)CC3O)CC1)c1ccc(Cl)cc1
- IC50 (second compound 0.3 µM): 5.63 nM
- IC50 (second compound 0.949 µM): 5.24 nM
- IC50 (second compound 3 µM): 5.89 nM
- IC50 (second compound 9.49 µM): 6.24 nM
- IC50 (second compound 30 µM): 9.07 nM
- viability, T/C (second compound 0.3 µM, first compound 94.9 pM): 78.5%
- viability, T/C (second compound 0.3 µM, first compound 0.0003 µM): 87.2%
- viability, T/C (second compound 0.3 µM, first compound 0.000949 µM): 72%
- viability, T/C (second compound 0.3 µM, first compound 0.003 µM): 62.6%
- viability, T/C (second compound 0.3 µM, first compound 0.00949 µM): 40.1%
- viability, T/C (second compound 0.3 µM, first compound 0.03 µM): 18.1%
- viability, T/C (second compound 0.949 µM, first compound 94.9 pM): 99.8%
- viability, T/C (second compound 0.949 µM, first compound 0.0003 µM): 107%
- viability, T/C (second compound 0.949 µM, first compound 0.000949 µM): 69%
- viability, T/C (second compound 0.949 µM, first compound 0.003 µM): 66.1%
- viability, T/C (second compound 0.949 µM, first compound 0.00949 µM): 37.8%
- viability, T/C (second compound 0.949 µM, first compound 0.03 µM): 18.4%
- viability, T/C (second compound 3 µM, first compound 94.9 pM): 82.7%
- viability, T/C (second compound 3 µM, first compound 0.0003 µM): 97.7%
- viability, T/C (second compound 3 µM, first compound 0.000949 µM): 86.2%
- viability, T/C (second compound 3 µM, first compound 0.003 µM): 65.6%
- viability, T/C (second compound 3 µM, first compound 0.00949 µM): 39.5%
- viability, T/C (second compound 3 µM, first compound 0.03 µM): 26.5%
- viability, T/C (second compound 9.49 µM, first compound 94.9 pM): 70.6%
- viability, T/C (second compound 9.49 µM, first compound 0.0003 µM): 78.9%
- viability, T/C (second compound 9.49 µM, first compound 0.000949 µM): 73.2%
- viability, T/C (second compound 9.49 µM, first compound 0.003 µM): 62.7%
- viability, T/C (second compound 9.49 µM, first compound 0.00949 µM): 42.5%
- viability, T/C (second compound 9.49 µM, first compound 0.03 µM): 18.2%
- viability, T/C (second compound 30 µM, first compound 94.9 pM): 109%
- viability, T/C (second compound 30 µM, first compound 0.0003 µM): 77.6%
- viability, T/C (second compound 30 µM, first compound 0.000949 µM): 95.4%
- viability, T/C (second compound 30 µM, first compound 0.003 µM): 68.5%
- viability, T/C (second compound 30 µM, first compound 0.00949 µM): 48.3%
- viability, T/C (second compound 30 µM, first compound 0.03 µM): 21.8%

Structure (SMILES): CC(C)CC(NC(=O)C(Cc1ccccc1)NC(=O)c1cnccn1)B(O)O (stereo not given) + CC(C)NCC(C(=O)N1CCN(c2ncnc3c2C(C)CC3O)CC1)c1ccc(Cl)cc1
- IC50 (second compound 0.3 µM): > 10 nM
- IC50 (second compound 0.949 µM): > 10 nM
- IC50 (second compound 3 µM): > 10 nM
- IC50 (second compound 9.49 µM): > 10 nM
- IC50 (second compound 30 µM): > 10 nM
- viability, T/C (second compound 0.3 µM, first compound 31.6 pM): 84.6%
- viability, T/C (second compound 0.3 µM, first compound 0.0001 µM): 80.4%
- viability, T/C (second compound 0.3 µM, first compound 0.000316 µM): 75.7%
- viability, T/C (second compound 0.3 µM, first compound 0.001 µM): 92.6%
- viability, T/C (second compound 0.3 µM, first compound 0.00316 µM): 83.2%
- viability, T/C (second compound 0.3 µM, first compound 0.01 µM): 63.8%
- viability, T/C (second compound 0.949 µM, first compound 31.6 pM): 83.7%
- viability, T/C (second compound 0.949 µM, first compound 0.0001 µM): 97.6%
- viability, T/C (second compound 0.949 µM, first compound 0.000316 µM): 86.4%
- viability, T/C (second compound 0.949 µM, first compound 0.001 µM): 88.9%
- viability, T/C (second compound 0.949 µM, first compound 0.00316 µM): 95.6%
- viability, T/C (second compound 0.949 µM, first compound 0.01 µM): 69.7%
- viability, T/C (second compound 3 µM, first compound 31.6 pM): 84.4%
- viability, T/C (second compound 3 µM, first compound 0.0001 µM): 84.7%
- viability, T/C (second compound 3 µM, first compound 0.000316 µM): 67.9%
- viability, T/C (second compound 3 µM, first compound 0.001 µM): 84.4%
- viability, T/C (second compound 3 µM, first compound 0.00316 µM): 78.7%
- viability, T/C (second compound 3 µM, first compound 0.01 µM): 77.1%
- viability, T/C (second compound 9.49 µM, first compound 31.6 pM): 100%
- viability, T/C (second compound 9.49 µM, first compound 0.0001 µM): 88.2%
- viability, T/C (second compound 9.49 µM, first compound 0.000316 µM): 110%
- viability, T/C (second compound 9.49 µM, first compound 0.001 µM): 83.2%
- viability, T/C (second compound 9.49 µM, first compound 0.00316 µM): 66.2%
- viability, T/C (second compound 9.49 µM, first compound 0.01 µM): 82.8%
- viability, T/C (second compound 30 µM, first compound 31.6 pM): 85.2%
- viability, T/C (second compound 30 µM, first compound 0.0001 µM): 97.1%
- viability, T/C (second compound 30 µM, first compound 0.000316 µM): 96.7%
- viability, T/C (second compound 30 µM, first compound 0.001 µM): 88.4%
- viability, T/C (second compound 30 µM, first compound 0.00316 µM): 85.2%
- viability, T/C (second compound 30 µM, first compound 0.01 µM): 78%
